These results are taken from US9302014B2, “Cell-penetrating peptides having a central hydrophobic domain” (Medical Research Council, priority 2011, dated 2016).

Like-named read-outs stand apart in the source and are kept apart here. Non-standard residues stand in square brackets, D forms with d. No end group written: not given here. Ahx = NCCCCCC(=O)O; βAla = NCCC(=O)O

One data set deals with dystrophin exon 23. As to the kind of experiment: Exon skipping in differentiated mouse H2K mdx myotubes (nested RT-PCR, densitometry). The format is cell-based. As to conditions: no transfection agent. The method, then: The exon skipping potential of Pip6-PMO conjugates was evaluated in differentiated mouse H2K mdx myotubes in the absence of any transfection agent (FIG. 1) at concentrations ranging from 0.125 μM to 1 μM. […] In the case of Pip6 sequences, the flanking arginine-rich sequences are identical (with the exception of Pip6e, which is identical except for one arginine immediately preceding the core which is displaced into the second position of the core). […] Note that we have previously shown that major changes in in vitro exon skipping activities are correlated instead with the total numbers of arginine residues [Saleh, A. F., et al., Synthesis and splice-redirecting activity of branched, arginine-rich peptide dendrimer conjugates of peptide nucleic acid oligonucleotides. Bioconjug Chem, 2010. 21(10): p. 1902-11.].
H2K mdx myotubes are derived from H2K mdx myoblasts obtained from the EDL muscle of a male H2K mdx f2 mouse. The cells are dystrophin deficient and conditionally immortal due to thermolabile simian virus 40 large tumor antigen (tsA58) expression. The myoblasts proliferate at 33° C. (10% CO2) in rich culture and differentiate into myotubes at 37° C. in media with horse serum.
H2K mdx myotubes were prepared and incubated with peptide-PNA and peptide-PMO conjugates in the absence of any transfection agent by the methods described previously (Wang, Q, Yin, H, et aL (2010) In vitro evaluation of novel antisense oligonucleotides is predictive of in vivo exon skipping activity for Duchenne muscular dystrophy) but with minor variations.
Myotubes were obtained from confluent H2K mdx cells seeded in gelatine coated 24-well plates following 2 days of serum deprivation (DMEM with 5% horse serum). The conjugates were incubated with myotubes for 4 h in 0.5 mL OptiMEM and then replaced by 1 mL of DMEM/5% horse serum media for further incubation. After 20 h myotubes were washed twice with PBS and total RNA was extracted with 0.5 mL of TRI Reagent (Sigma, UK). RNA preparations were treated with RNAse free DNAse (2U) and Proteinase K ([…]) prior to RT-PCR analysis. RT-PCR was carried out in 25 μL with 1 μg RNA template using SuperScript III One-Step RTPCR System with Platinum Taq DNA polymerase (Invitrogen) primed by forward primer 5′CAG AAT TCT GCC AAT TGC TGAG3′ [SEQ ID NO:312] and reverse primer 5′TTC TTC AGC TTG TGT CAT CC3′ [SEQ ID NO:313]. The initial cDNA synthesis was performed at 55° C. for 30 min followed by 30 cycles of 95° C. for 30 sec, 55° C. for 1 min and 68° C. for 80 sec. RT PCR product ([…]) was then used as the template for secondary PCR performed in 25 μL with 0.5 U Super TAQ polymerase (HT Biotechnologies) and primed by forward primer 5′CCCAGTCTACCACCCTATCAG AGC3′ [SEQ ID NO:314] and reverse primer 5′CCT GCC TTT AAG GCT TCC TT3′ [SEQ ID NO:315]. The cycling conditions were 95° C. for 1 min, 57° C. for 1 min and 72° C. for 80 sec for 25 cycles. Products were examined by 2% agarose gel and after scanning using Gene Tools Analysis Software (SynGene) the relative amount of exon 23 skipping was expressed as a percentage at a given concentration of conjugates averaged over duplicates of three experiments.
H2K mdx myotubes were prepared and incubated with peptide-PMO conjugates in the absence of any transfection agent at concentrations of 0.125, 0.25, 0.5 and 1.0 μM by the method described previously [Yin, H., et al., Pip5 transduction peptides direct high efficiency oligonucleotide-mediated dystrophin exon skipping in heart and phenotypic correction in mdx mice. Mol Ther, 2011. 19(7): p. 1295-303.]. The products of nested RT-PCR from total isolated RNA were examined by electrophoresis on a 2% agarose gel. Quantification of Δ23 transcript levels was calculated using densitometry. […]

Data set [1] concerns dystrophin. As to the kind of experiment: Immunohistochemical staining and quantification of dystrophin in mdx mice after single IV injection. As to conditions: 8 week old mdx mice, single 12.5 mg/kg IV, 2 weeks after injection. In kind it is in vivo. The text has this:
Given the potency of Pip5e-PMO in heart tissue, the aim of altering the sequence of the hydrophobic core (whilst maintaining the 5-aa length) was to identify peptides that might be more efficient at lower doses. These modifications included inversion of the hydrophobic region (Pip6a), substitution of tyrosine by isoleucine (Pip6b), substitution of glutamine in the Pip6a sequence by displacement of the arginine immediately flanking the core in the first arginine-rich flanking region (Pip6e), and a scrambled hydrophobic core sequence (Pip6f). All Pip6 peptide-PMO conjugates were administered to mdx mice as single 12.5 mg/kg intravenous injections via the tail vein and tissues were harvested 2 weeks later and assessed for activity at both RNA and protein levels.
Immunohistochemical staining quantification (FIGS. 34a, b) was performed as previously described [Malerba, A., et al., Chronic systemic therapy with low-dose morpholino oligomers ameliorates the pathology and normalizes locomotor behavior in mdx mice. Mol Ther, 2011. 19(2): p. 345-54; Arechavala-Gomeza, V., et al., Immunohistological intensity measurements as a tool to assess sarcolemma-associated protein expression. Neuropathol Appl Neurobiol, 2010. 36(4): p. 265-74.] and was achieved by taking 4 representative frames of the dystrophin staining and correlating this with laminin staining for each section (n=3) of the quadriceps, diaphragm and heart for each peptide-PMO treatment. Untreated mdx and treated mdx mice were normalised to C57BL10 mice. This method allows comparison of the staining intensity of dystrophin at the sarcolemma relative to laminin for each treatment group. Intensity ratios are normalised to C57BL10 samples and each region of interest at the sarcolemma (120 regions for each treatment group) is plotted on a scatter graph. […]
Transverse sections of tissue samples were cut (8 μm thick) for the examination of dystrophin expression. For dystrophin visualisation and quantification, sections were co-stained with rabbit-anti-dystrophin (Abcam) and rat anti-laminin (Sigma), and detected by goat-anti-rabbit IgG Alexa 594 and goat-anti-rat IgG 488 secondary antibodies respectively (Invitrogen). […] Quantitative immunohistochemistry was performed as previously described [Malerba, A., et al., Chronic systemic therapy with low-dose morpholino oligomers ameliorates the pathology and normalizes locomotor behavior in mdx mice. […] For quantification, 4 representative frames of the dystrophin and correlating laminin were taken for each section (n=3) of the quadriceps, diaphragm and heart for each treatment. […] The minimum and maximum fluorescence intensity for 120 regions were recorded for each treatment. […]

The conditions of data set [2]: mice; cited from earlier work.
For data set [3] the following is noted: monkeys; cited from earlier work.
Data set [4] deals with dystrophin. As to conditions: intramuscular or intravenous delivery in mdx mice; cited from earlier work.
Setting [5] is: Example 5, conjugate 0.125 to 2.0 μM.

For “Pip9c2: Pip9 series peptide (SEQ ID Nos 320-328) conjugated to PMODMD (R[Ahx]RR[βAla]RRFQILY[βAla]R[Ahx]R[βAla]; also: conjugated to PMO (PMODMD))”, in the data set on dystrophin exon 23 (setting [5]), the “exon skipping activity (Δ23 skipping) in mdx muscle cells” value (“exon skipping activity (Δ23 skipping)” below) was “high exon skipping activity”.
Take “Pip9d: Pip9 series peptide (SEQ ID Nos 320-328) conjugated to PMODMD (R[Ahx]RR[βAla]RFQILY[βAla]R[βAla]R[βAla]; also: conjugated to PMO (PMODMD))”: the “exon skipping activity (Δ23 skipping)” value with dystrophin exon 23 (setting [5]) was “high exon skipping activity”. For the same substance, the “dystrophin expression in the heart” value in the data set with dystrophin [1] is given as “negligible dystrophin production”.
For “Pip9c3: Pip9 series peptide (SEQ ID Nos 320-328) conjugated to PMODMD (R[Ahx]RR[βAla]RFQILYRR[βAla]R[βAla]; also: conjugated to PMO (PMODMD))”, the “exon skipping activity (Δ23 skipping)” value in the data set with dystrophin exon 23 (setting [5]) is recorded as “high exon skipping activity”.
With “Exon-skipping PMO: phosphorodiamidate morpholino oligonucleotide for exon skipping, unconjugated, from cited toxicology studies (GGCCAAACCTCGGCTTACCTGAAAT; all phosphorodiamidate morpholino (PMO))”, the well tolerated dosage in data set [2] is at most 960 mg/kg; in data set [3], at most 320 mg/kg.
For the substance “Pip8a: Pip8 series peptide (SEQ ID NOs:17-20, parent Pip 6a; 9 Arg) conjugated to PMODMD (R[Ahx]RR[βAla]R[Ahx]RYQFLIR[Ahx]RR[βAla]R[βAla]; also: conjugated to PMO (PMODMD))”, the “exon skipping activity (Δ23 skipping)” value with dystrophin exon 23 (setting [5]) and in the data set on dystrophin exon 23 (conjugate 0.125 to 1 μM) was “high exon skipping activity” each time.
In the case of “Pip8c2: Pip8 series peptide (SEQ ID NOs:17-20) conjugated to PMODMD (R[Ahx]RR[βAla]RYQFLIRR[βAla]R[βAla]; also: conjugated to PMO (PMODMD))”, the “exon skipping activity (Δ23 skipping)” value in the data set on dystrophin exon 23 (setting [5]) is “high exon skipping activity”. Also, the “dystrophin expression in the heart” value in the data set on dystrophin [1] is on record as “negligible dystrophin production”.
With “Pip8d: Pip8 series peptide (SEQ ID NOs:317-319) conjugated to PMODMD (R[Ahx]RR[βAla]RYQFLI[βAla]R[Ahx]R[βAla]; also: conjugated to PMO (PMODMD))”, the “exon skipping activity (Δ23 skipping)” value with dystrophin exon 23 (setting [5]) was “high exon skipping activity”.
For the substance “RXRRBRRXRRBRXB (R[Ahx]RR[βAla]RR[Ahx]RR[βAla]R[Ahx][βAla]; also: conjugated to PMO (PMODMD)) [B peptide]”, the “exon skipping and dystrophin production compared to naked PMODMD” value with dystrophin [4] is “significantly enhance exon skipping and dystrophin production”.
With “Pip7d: Pip7 series peptide (SEQ ID NOs:11-16) conjugated to PMODMD (R[Ahx]R[βAla][Ahx]YRFLI[Ahx]R[βAla]R[Ahx]R[βAla]; also: conjugated to PMO (PMODMD), site not given here)”, the “exon skipping activity (Δ23 skipping)” value in the data set on dystrophin exon 23 (conjugate 0.125 to 1 μM) is “moderate exon skipping”.
